Measured values from patent US7368421B2, “Use of dipeptidyl peptidase IV inhibitors in the treatment of multiple sclerosis” (Probiodrug AG, priority 2001, dated 2008).
pIC50: −log10 of the molar value. Entries after “also recorded” stand apart in the source; their conditions may differ. Counter-ions that a name gives are not always drawn. Marks after values point to notes of the source that are not given here. Each block holds one compound with its values, some of them ahead of it. Square brackets hold non-standard residues; d marks the D form. Peptide text beside a SMILES is read from it. pY = N[C@@H](Cc1ccc(OP(=O)(O)O)cc1)C(=O)O

What was measured:
[1] = test system: experimental autoimmune encephalomyelitis (EAE); assay: EAE experiment 2: i.p. treatment day 5-15, male Lewis rats; assay type: in vivo; parameters: key to Average score / Maximal score: 0.5 = partial tail tone loss … 4 = quadriplegia, 5 = death; Onset of disease (1st day of score > 1): unit not given here; settings: for Average score / Maximal score / Onset of disease (1st day of score > 1) / Sum of scores: days 5-15 p.i.
Procedure: (§1) For the second experiment, male inbred Lewis rats (n=50) with a mean body weight of 230±12 g, were obtained from Charles River (Bad Sulzfeld, Germany). Animals were randomly assigned to the different experimental conditions. Rats were housed four per cage under a 12:12 h light: dark cycle (lights off at 18:00 h) and at constant temperature (24° C.) in a specific pathogen free air-conditioned colony room with food (Altromin lab chow pellets) and tap water available ad lib. The animals underwent routine cage maintenance once a week.
(§2) Guinea pig MBP (50 μg/rat) was emulsified in Complete Freund's adjuvant (CFA) containing heat-killed Mycobacterium tuberculosis (H37Ra; 225 μg/rat) and injected s.c. at the base of the tail in a total volume of 100 μl (12). CFA (Sigma) and heat-killed Mycobacterium tuberculosis (H37Ra) were purchased from Life Technologies, Inc. (Rockville, Md.). Clinical disease was scored on the following scale: 0.5: partial loss of tail tone; 1.0: complete tail atony; 2.0: hind limb weakness; 2.5: hind limb paralysis of one leg; 3.0: hind limb paralysis of both legs; 3.5: limb paralysis of three legs; 4.0: quadriplegia and moribund status; 5.0: death due to EAE. Experiments were terminated on day 21 post immunization (p.i.).
The incidence of adjuvant-induced arthritis was remarkably low (n=0 in the 2nd experiment) using the base of the tail as an immunization site. In the second experiment no signs of arthritis were found. […] This time, these animals remained in the analysis, because this finding is probably due to the treatment. In this experiment a phenomenon called “disease dissociation” was observed. In several animals there was a clear tonus of the tail associated with a clear weakness of the hind limbs. The animals were scored maximal, i.e. 2.
(§3) Comparison over time between the clinical course of EAE of the different treatment conditions was conducted using a two factorial analysis of variance (ANOVA) for repeated measures. Sums of clinical scores of EAE, onset and peak of disease were calculated on the basis of the clinical scores per day and analyzed using a one factorial ANOVA and post hoc Fisher's PLSD tests, if appropriate. All data are presented as means±SEM.

[2] = test system: experimental autoimmune encephalomyelitis (EAE); assay: EAE experiment 1: i.p. treatment day 1-15, female Lewis rats; assay type: in vivo
Procedure: as §1, with “first experiment female” for “second experiment, male”, “190±6” for “230±12”, “week. All research and animal care procedures were approved by the government of Lower Saxony in Hannover, Germany, and performed in compliance with international animal welfare standards.” for “week.”
as §2, with “15” for “21”, “when most of the animals were about 48 h after maximal clinical score. The incidence of adjuvant-induced arthritis was remarkably low (n=0 in the 1st experiment) using the base of the tail as an immunization site. […]” for “(p.i.).”
as §3, with “All data are presented as means±SEM.” left out

[3] = target: T1, plasma DP IV activity (Rattus norvegicus, UniProt P14740); assay: DP IV inhibiting activity after intravasal and oral administration to Wistar rats; assay type: in vivo; settings: 100 mg/kg; for in vivo DP IV-inhibition at tmax, i.v.: intra-vasal (intra-arterial); for in vivo DP IV-inhibition at tmax, p.o.: oral
T1 construct: from tissue; host or cells: plasma of Wistar rats
Procedure: Male Wistar rats (Shoe: Wist(Sho)) with a body weight ranging between 250 and 350 g were purchased from Tierzucht Schönwalde (Schönwalde, Germany).
Animals were single-caged under conventional conditions with controlled temperature (22±2° C.) on a 12/12 hours light/dark cycle (light on at 06:00 AM). Standard pelleted chow (ssniff® Soest, Germany) and tap water acidified with HCl were allowed ad libitum.
After ≧one week of adaptation at the housing conditions, catheters were implanted into the carotid artery of Wistar rats under general anaesthesia (i.p. injection of 0.25 ml/kg b.w. Rompun® [2%], BayerVital, Germany and 0.5 ml/kg b.w. Ketamin 10, Atarost GmbH & Co., Twistringen, Germany). The animals were allowed to recover for one week. The catheters were flushed with heparin-saline (100 IU/ml) three times per week. In case of catheter dysfunction, a second catheter was inserted into the contra-lateral carotid artery of the respective rat. After one week of recovery from surgery, this animal was reintegrated into the study. In case of dysfunction of the second catheter, the animal was withdrawn from the study. A new animal was recruited and the experiments were continued in the planned sequence, beginning at least 7 days after catheter implantation.
After overnight fasting, 100 μl samples of heparinised arterial blood were collected at −30, −5, and 0 min. […] In the case of oral administration, an additional volume of 1 ml saline was injected into the arterial catheter. In the case of intra-arterial administration, the catheter was immediately flushed with 30 μl saline and an additional 1 ml of saline was given orally via the feeding tube.
All blood samples were collected into ice cooled Eppendorf tubes (Eppendorf-Netheler-Hinz, Hamburg, Germany) filled with 10 μl 1 M sodium citrate buffer (pH 3.0) for plasma DP IV activity measurement. Eppendorf tubes were centrifuged immediately (12000 rpm for 2 min, Hettich Zentrifuge EBA 12, Tuttlingen; Germany): The plasma fractions were stored on ice until analysis or were frozen at −20° C. until analysis. All plasma samples were labelled with the following data: • Code number • Animal Number • Date of sampling • Time of sampling Analytical Methods
The assay mixture for determination of plasma DP IV activity consisted of 80 μl reagent and 20 μl plasma sample. […] The DP IV activity was expressed in mU/ml.
All parameters were analysed in a descriptive manner including mean and SD.

[4] = test system: EAE; settings: chronic treatment, female Lewis rats; cited from earlier work
[5] = target: purified porcine DP IV (Sus scrofa, UniProt P22411); assay: Determination of IC50 values, DP IV; assay type: biochemical; settings: Gly-Pro-pNA 0.4 mM, HEPES pH 7.6, 30° C.
Procedure: 100 μl inhibitor stock solution were mixed with 100 μl buffer (HEPES pH7.6) and 50 μl substrate (Gly-Pro-pNA, final concentration 0.4 mM) and preincubated at 30° C. Reaction was started by addition of 20 μl purified porcine DP IV. Formation of the product pNA was measured at 405 nm over 10 min using the HTS 7000Plus plate reader (Perkin Elmer) and slopes were calculated. The final inhibitor concentrations ranged between 1 mM and 30 nM. For calculation of IC50 GraFit 4.0.13 (Erithacus Software) was used.

[6] = target: T2, porcine DP II (Sus scrofa, UniProt A0A5G2QK18); assay: Inhibition of DP IV-like enzymes, dipeptidyl peptidase II; assay type: biochemical
T2 construct: The enzyme used was purified from porcine kidney; from tissue; host or cells: porcine kidney
Procedure: DP II (3.4.14.2) releases N-terminal dipeptides from oligopeptides if the N-terminus is not protonated (McDonald, J. K., Ellis, S. & Reilly, T. J., 1966, J. Biol. Chem., 241, 1494-1501). Pro and Ala in P1-position are preferred residues. The enzyme activity is described as DP IV-like activity, but DP II has an acidic pH-optimum. The enzyme used was purified from porcine kidney.
100 μl glutaminylpyrrolidine or glutaminylthazolidine in an concentration range of 1*10^−4 M-5*10^−8M were admixed with 100 μl μl buffer solution (40 mM HEPES, pH7.6, 0.015% Brij, 1 mM DTT), 50 μl lysylalanylaminomethylcoumarine solution (5 mM) and 20 μl porcine DP II (250fold diluted in buffer solution). Fluorescence measurement was performed at 30° C. and λexiatation=380 nm, λemission=465 nm for 25 min using a plate reader (HTS7000plus, Applied Biosystems, Weiterstadt, Germany).

[7] = target: T3, Dipeptidyl Peptidase I (DP I, Cathepsin C) (Rattus norvegicus, UniProt P80067); assay: Cross reacting enzymes: dipeptidyl peptidase I; assay type: biochemical; settings: concentration range 1*10^−5M-1*10^−7M
T3 construct: purchased Qiagen GmbH, Hilden, Germany
T3 sequence (P80067 25-462): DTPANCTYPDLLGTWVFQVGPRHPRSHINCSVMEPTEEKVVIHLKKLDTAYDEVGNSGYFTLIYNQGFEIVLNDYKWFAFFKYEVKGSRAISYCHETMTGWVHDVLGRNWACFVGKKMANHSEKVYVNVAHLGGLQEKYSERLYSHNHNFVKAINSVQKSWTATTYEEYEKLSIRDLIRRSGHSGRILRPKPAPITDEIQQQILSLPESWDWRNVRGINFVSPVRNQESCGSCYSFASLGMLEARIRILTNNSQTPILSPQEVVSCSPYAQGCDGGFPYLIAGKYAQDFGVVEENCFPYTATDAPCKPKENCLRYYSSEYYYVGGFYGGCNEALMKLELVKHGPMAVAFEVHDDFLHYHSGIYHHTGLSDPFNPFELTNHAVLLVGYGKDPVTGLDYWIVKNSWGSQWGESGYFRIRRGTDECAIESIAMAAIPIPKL
Procedure: DP I or cathepsin C is a lysosomal cysteine protease which cleaves off dipeptides from the N-terminus of their substrates (Gutman, H. R. & Fruton, J. S., 1948, J. Biol. Chem., 174, 851-858). It is classified as a cysteine protease. The enzyme used was purchased from Qiagen (Qiagen GmbH, Hilden, Germany). In order to get a fully active enzyme, the enzyme was diluted 1000 fold in MES buffer pH5,6 (40 mM MES, 4 mM DTT, 4 mM KCl, 2 mM EDTA, 0.015% Brij) and pre-incubated for 30 min at 30° C.
50 μl glutaminylpyrrolidine or glutaminylthazolidine in a concentration range of 1*10^−5M-1*10^−7M were admixed with 110 μl buffer-enzyme-mixture. The assay mixture was pre-incubated at 30° C. for 15 min. After pre-incubation, 100 μl, histidylseryl-β-nitroaniline (2*10^−5M) was added and measurement of yellow color development due to β-nitroaniline release was performed at 30° C. and […] for 10 min., using a plate reader (HTS7000 plus, Applied Biosystems, Weiterstadt, Germany).
The IC 50-values were calculated using Graphit 4.0.15 (Erithacus Software, Ltd., UK).

T1 sequence (P14740 37-767 limits assumed): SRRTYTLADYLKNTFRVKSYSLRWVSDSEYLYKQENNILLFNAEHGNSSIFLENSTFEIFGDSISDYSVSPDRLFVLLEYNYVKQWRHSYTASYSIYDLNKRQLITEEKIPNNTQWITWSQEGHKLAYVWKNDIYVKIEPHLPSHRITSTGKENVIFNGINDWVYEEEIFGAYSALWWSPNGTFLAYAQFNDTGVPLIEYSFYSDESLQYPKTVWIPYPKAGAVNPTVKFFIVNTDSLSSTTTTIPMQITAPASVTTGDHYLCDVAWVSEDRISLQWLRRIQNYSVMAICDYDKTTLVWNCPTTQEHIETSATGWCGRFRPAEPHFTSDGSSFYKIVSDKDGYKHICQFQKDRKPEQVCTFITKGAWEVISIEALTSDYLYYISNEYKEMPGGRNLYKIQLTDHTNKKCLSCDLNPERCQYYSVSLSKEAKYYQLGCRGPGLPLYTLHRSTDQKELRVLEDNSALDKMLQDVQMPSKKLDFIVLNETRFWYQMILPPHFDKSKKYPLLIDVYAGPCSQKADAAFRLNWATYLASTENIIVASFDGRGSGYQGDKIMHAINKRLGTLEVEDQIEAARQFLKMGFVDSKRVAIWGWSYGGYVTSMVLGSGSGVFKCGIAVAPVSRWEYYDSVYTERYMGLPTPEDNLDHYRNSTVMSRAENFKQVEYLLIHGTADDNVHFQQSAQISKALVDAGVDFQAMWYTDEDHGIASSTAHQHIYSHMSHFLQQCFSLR
Sequence of purified porcine DP IV (P22411 whole entry): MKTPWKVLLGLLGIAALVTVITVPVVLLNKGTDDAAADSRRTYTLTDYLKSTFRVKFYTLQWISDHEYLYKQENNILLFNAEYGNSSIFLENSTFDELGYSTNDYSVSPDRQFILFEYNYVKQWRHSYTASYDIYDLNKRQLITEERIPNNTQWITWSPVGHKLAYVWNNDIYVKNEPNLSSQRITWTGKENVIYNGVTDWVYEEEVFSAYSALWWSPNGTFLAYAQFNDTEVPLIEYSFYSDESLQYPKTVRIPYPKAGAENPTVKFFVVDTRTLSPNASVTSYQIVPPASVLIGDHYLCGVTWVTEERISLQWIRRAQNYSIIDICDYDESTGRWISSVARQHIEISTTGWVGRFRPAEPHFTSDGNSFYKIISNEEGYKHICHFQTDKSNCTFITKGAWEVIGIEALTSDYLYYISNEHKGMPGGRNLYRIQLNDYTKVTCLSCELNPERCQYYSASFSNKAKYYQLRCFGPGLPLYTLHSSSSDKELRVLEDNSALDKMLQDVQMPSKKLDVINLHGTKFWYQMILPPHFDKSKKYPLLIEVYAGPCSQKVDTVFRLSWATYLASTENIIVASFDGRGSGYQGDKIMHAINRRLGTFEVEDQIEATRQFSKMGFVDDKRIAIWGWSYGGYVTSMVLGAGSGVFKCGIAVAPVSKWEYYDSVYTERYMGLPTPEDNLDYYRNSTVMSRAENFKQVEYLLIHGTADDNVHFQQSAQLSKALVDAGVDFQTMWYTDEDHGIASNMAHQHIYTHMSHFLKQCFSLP
T2 sequence (A0A5G2QK18 28-502): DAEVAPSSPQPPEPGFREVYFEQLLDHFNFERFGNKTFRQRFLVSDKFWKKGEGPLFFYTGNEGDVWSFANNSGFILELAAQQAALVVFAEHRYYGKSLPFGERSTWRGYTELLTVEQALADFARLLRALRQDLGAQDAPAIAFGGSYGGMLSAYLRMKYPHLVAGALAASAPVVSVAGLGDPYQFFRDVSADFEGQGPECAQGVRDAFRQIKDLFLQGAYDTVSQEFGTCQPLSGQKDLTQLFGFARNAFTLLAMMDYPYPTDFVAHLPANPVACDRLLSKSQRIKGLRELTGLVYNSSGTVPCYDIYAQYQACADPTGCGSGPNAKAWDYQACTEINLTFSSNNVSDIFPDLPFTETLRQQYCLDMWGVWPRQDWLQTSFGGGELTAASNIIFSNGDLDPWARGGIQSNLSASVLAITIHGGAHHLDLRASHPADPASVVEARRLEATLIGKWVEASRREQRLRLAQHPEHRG

SMILES: CC[C@H](C)[C@H](N)C(=O)N1CCSC1 [isoleucyl thiazolidine fumarate]
effect on clinical scores in the second peak (classical acute EAE), days 10-13 ([1]; 1 mg dose i.p.): aggravate the clinical scores
Average score ([1]; 1 mg/kg i.p. daily): 0.96*
Maximal score ([1]; 1 mg/kg i.p. daily): 2.8
Onset of disease (1st day of score > 1) ([1]; 1 mg/kg i.p. daily): 10.3*
Sum of scores ([1]; 1 mg/kg i.p. daily): 14.2*
effect on disease activity after initiation of treatment, days 6-9 ([1]; 3 mg and 10 mg dosages i.p.): induced a significant first peak of disease activity
Average score ([1]; 3 mg/kg i.p. daily): 0.8
Maximal score ([1]; 3 mg/kg i.p. daily): 3.0
Onset of disease (1st day of score > 1) ([1]; 3 mg/kg i.p. daily): 12.0
Sum of scores ([1]; 3 mg/kg i.p. daily): 12.0
Average score ([1]; 10 mg/kg i.p. daily): 0.72
Maximal score ([1]; 10 mg/kg i.p. daily): 2.1
Onset of disease (1st day of score > 1) ([1]; 10 mg/kg i.p. daily): 12.1
Sum of scores ([1]; 10 mg/kg i.p. daily): 10.8
Average score ([1]; 30 mg/kg i.p. daily): 0.37**
Maximal score ([1]; 30 mg/kg i.p. daily): 2.0*
Onset of disease (1st day of score > 1) ([1]; 30 mg/kg i.p. daily): 14.0***
Sum of scores ([1]; 30 mg/kg i.p. daily): 5.6**
effect on clinical scores in the second peak (classical acute EAE), days 10-13 ([1]; 30 mg/kg i.p., fumarate): clearly improved the clinical course; also recorded: significant delaying and ameliorating effects
effect on clinical score of EAE, days 11 and 12 p.i. ([2]; 1 mg dosage i.p. daily from day 1, female Lewis rats, fumarate): significant disease-aggravating effect; also recorded: disease-aggravating effects
effect on clinical score of EAE, day 15 p.i. ([2]; 10 mg dose i.p. daily from day 1, female Lewis rats, fumarate): significantly reduced clinical score
shortening of the latency until onset of disease ([2]; 10 mg/kg i.p. daily from day 1, female Lewis rats): about 1 day

in vivo DP IV-inhibition at tmax, i.v. [3]: 97%
in vivo DP IV-inhibition at tmax, p.o. [3]: 76%
SMILES: Br.CC(C)[C@H](NC(=O)[C@H](C)N)C(=O)N1CCC[C@H]1C(=O)COC(=O)c1ccccc1 [Ala-Val-Pro-Benzoyl-methylketone, H-Ala-Val-Pro-CH2O—C(O)Ph*HBr]

in vivo DP IV-inhibition at tmax, i.v. [3]: 89%
in vivo DP IV-inhibition at tmax, p.o. [3]: 86%
SMILES: Br.CC(=O)OCC(=O)[C@@H]1CCCN1C(=O)[C@@H](NC(=O)[C@H](C)N)C(C)C [Ala-Val-Pro-Acyloxymethylketone, H-Ala-Val-Pro-CH2O—C(O)CH3*HBr]

SMILES: CN(C)CCCN1c2ccccc2CCc2ccccc21 [Imipramine]
severity of acute MBP-induced EAE [4]: reduce the severity

pIC50 [5]: 5.28
SMILES: NC(=O)CCC(N)C(=O)N1CCSC1 (stereo not shown) [Gln-Thia, glutaminyl thiazolidine]

type of inhibition of porcine DP II [6]: non-competitive type inhibitors
inhibition of DP I enzyme activity [7]: no inhibition
SMILES: NC(=O)CCC(N)C(=O)N1CCCC1 (stereo not shown) [Gln-Pyrr, glutaminyl pyrrolidine]

SMILES: CC[C@H](C)[C@H](NC(=O)[C@@H]1CCCN1C(=O)[C@@H](N)Cc1ccc(OP(=O)(O)O)cc1)C(=O)O [Tyr(P)-Pro-Ile] (H-[pY]-Pro-Ile-OH; N-terminus assumed)
in vivo DP IV-inhibition at tmax, p.o. [3]: no inhibition
